The test system of assay [1] is IL-10 and inflammatory cytokine expression. The note with it: 2′-FL alone or as part of an HMO mixture, pre-clinical studies; cited from earlier work.
Assay [2] concerns gastrointestinal mitochondrial function. The note with it: murine model; pathways of electron transport chain, oxidative phosphorylation, protein targeting to the mitochondrion; cited from earlier work.
Another assay concerns bifidobacteria. The note with it: alone or in combination with other HMOs; cited from earlier work.
The next assay has as its system mouse model for ASD. Put plainly: Sociality (aggregons) in mouse model for ASD, pups of antibiotic-treated mothers. The assay is classed as in vivo. From the text: ASD is a neurobehavioral disorder in which affected individuals have persistent deficits in social communication and interaction (symptom of ASD). To address the impact of 2′-FL administration on social communication and interaction, a mouse model for ASD was designed and experiments conducted to study ASD-associated neurobehavioral disorders such as interpersonal sociality. A depiction of the system used for scoring contact behavior was adapted from known method, e.g., that described by Harshaw, C. et al. (2014). “Sex Differences in Thermogenesis Structure Behavior and Contact within Huddles of Infant Mice.” Plos One, 9(1), 1-15 and Sokoloff G, Blumberg M S. Competition and cooperation among huddling infant rats. Dev Psychobiol. 2001 September; 39(2):65-75. doi: 10.1002/dev.1030, Erratum in: Dev Psychobiol 2001 November; 39(3):229.
The question to be addressed was whether providing 2′-FL rescues the normal sociality of mouse pups whose social interaction was perturbed. Perturbation of behavior was achieved by antibiotic treatment of their mothers using a method previously developed and validated. Sociality is measured by objective measurement of “aggregons” which means the (a) huddling of dams and pups or (b) pups only in groups.
The mouse experiment involved 22 mother-pup litters including a control group (n=7 litters with 28 pups), an antibiotic treated group (7 litters with 28 pups), and a 2′-FL treated group (8 litters with 32 pups).
Mothers were treated with an antibiotic cocktail, starting from gestational day 12; delivery was on day 20. Antibiotic use was continued for mothers postpartum. Treatment of 2′-FL was given to mothers and pups through their water intake. Sociality was measured at night, as mice are nocturnal animals, using the mean number of aggregons (social groupings). Aggregons could consist of individual mice only if they were not huddled with other mice, or they could be a group defined as either one or more pups with the dam, or two or more pups without the dam. The outcome of the experiment was measured on postpartum day 7. […]

For the substance 2′-fucosyllactose [2′-FL], in assay [1], the IL-10 entry is “increase IL-10” and the inflammatory cytokine expression entry was “decrease inflammatory cytokine expression”. Also, in assay [2], the gastrointestinal mitochondrial function entry was “increase gastrointestinal mitochondrial function”. In addition, the “growth and relative abundance of bifidobacteria” value in the assay with bifidobacteria is “increases the growth and relative abundance of bifidobacteria”. Also, in the assay on mouse model for ASD (night 7, p<0.05, 2′-FL group follows the pattern of the controls), the “pup-only aggregons, pattern by experimental group” value is “This pattern in the aggregons by experimental group was also observed”. For the same substance, in the assay on mouse model for ASD (night 7 postpartum, 2′-FL via water intake to mothers and pups, antibiotic-treated group 41, controls 26, lower number = more sociality), the “marginal mean of aggregons including dams” value was 25 aggregons. Also, the “sociality of antibiotic-treated mice (dams and their offspring)” value with mouse model for ASD (postpartum day 7) is “normal sociality was rescued”.

The values are drawn from US20230255990A1, “USE OF 2'-FL FOR TREATMENT OF SYMPTOMS ASSOCIATED WITH AUTISM SPECTRUM DISORDER” (Glycosyn LLC, priority 2020, published 2023).
